From patent publication US20120258141A9, “Methods Of Immune Modulation” (UNIVERSITY OF MEDICINE AND DENTISTRY OF NEW JERSEY, priority 2010, published 2012)
In brackets after ≈: the same amount, converted by molar mass. Entries after “also recorded” stand apart in the source; their conditions may differ.

Key:
[1] = system: oral pathogens, biofilm cultures of Streptococcus mutans; details: Gram-positive and -negative, incl. S. mutans biofilm cultures; cited from earlier work
P. gingivalis = details: planktonic form; cited from earlier work
[2] = system: phosphorylated IκB / NF-κB activation; assay: IκB phosphorylation (CASE ELISA) in OKF6/TERT cells; format: cell-based, Human; details: 100 ng/ml IL-1β, 2 or 4 hours, 0, 2 or 5 μg/ml mPE, FIG. 4B
Procedure: Growth medium from stimulated cultures was collected either by aspiration (from keratinocytes) or after centrifugation at 1000 rpm for 15 minutes (for THP-1 cells). Cell debris was removed by centrifugation at 8,000 g (12,000 rpm) for 10 minutes at 4° C. To quantify IL-8 levels, the Human IL-8 Single Analyte ELISArray Kit (SA bioscience, MD) was used according to the manufacturer's protocol. The Cellular Activation of Signaling ELISA kit IKBα (SA bioscience, MD) was used to quantify both phosphorylated and whole IkBα levels in OKF6/TERT cells grown in a 96-well plate. All assays were performed in duplicate. OKF6/TERT cells were treated with mPE as above in the presence or absence of IL-1β. Total mRNA was isolated and IL-8 and hBD-2 mRNA levels were quantified by QPCR normalized to β2-Microglobulin. Levels are shown relative to the no-mPE sample for each group. The experiment was carried out in triplicate; error bars represent±SD. […] To determine whether this was due to an inhibition of NF-κB activation, gingival epithelial cells were treated with mPE in the presence or absence of 100 ng/ml IL-1β, and IκB phosphorylation levels were quantified using the CASE assay (SA Biosciences, MD), and quantified relative to total IκB levels). In particular, OKF6/TERT cells were grown in 96-well plates, treated with 100 ng/ml IL-1β for 2 or 4 hours in the presence of 0, 2 or 5 μg/ml mPE. […]

[3] = system: A. actinomycetemcomitans biofilms; assay: Activity against A. actinomycetemcomitans biofilms (XTT metabolic assay, crystal violet, plating); format: cell-based, Aggregatibacter actinomycetemcomitans
Procedure: Aggregatibacter actinomycetemcomitans 1005 (Aa) (obtained from Dr. Helen Schreiner, New Jersey Dental School) were cultured on TSB agar (4% trypticase soy broth, 0.6% yeast extract, 0.8% dextrose, 0.4% NaHCO3, 75 μg/mL bactracin, 5 μg/mL vancomycin) at 37° C., 10% CO2. Single colonies were inoculated to TSB broth in 75-cm^2 tissue culture flasks. Biofilm was harvest upon the 90% confluence and resuspended into 1 mL PBS. Resuspension was vortexed vigorously for 1 minute and allowed to settle for 10 minutes. The supernatant was then diluted to 2.5×10^7 before seeded to 96-well plates to obtain even biofilms. Porphyromonas gingivalis W381 (obtained from Dr. Christopher Cutler, Stony Brook University Dental School) were cultured on TSB-blood agar (3% trypticase soy broth, 5% defibrinated sheep blood, 5 hemin, 0.5 μg/mL menadione, and 0.2 mg/mL KNO3) in an anaerobic chamber (80% N2, 10% H2, and 10% CO2) at 37° C. For biofilm formation, the same protocol as Aa under anaerobic condition was used.
Aa biofilms were cultured into 96-well plates (tissue culture treated, Falcon) for 18 hours. Serial dilutions of the mimetic compounds were made in 100 μL RPMI-1640 without Phenol red and added directly to the wells. Plates were cultured at 37° C., 10% CO2 for 24 hours. Medium was removed, and cell viability was evaluated by XTT assay using the In Vitro Toxicology Assay Kit (Sigma) according to the manufacturer's protocol. Metabolic activity was measured by reading in a plate-reader at 450 nm. […] Colonies were counted after 72 hours. […]
To quantify the activity of AMP mimetics on biofilms, the activity against two bacterial species associated with periodontitis, A. actinomycetemcomitans and P. gingivalis was measured under conditions that lead to biofilm formation (Kaplan et al., J. Bacteriol. 2003, 185, 1399-1404; Davey, Periodontol 2000, 2006, 42, 27-35). […] After 24 hours, the growth medium was replaced with RPMI (without Phenol Red) and an XTT assay was carried out to quantify the metabolic activity. Metabolic activity was quantified by measuring the OD at 450 nm and 600 nm. […]

[4] = system: OKF6/TERT and THP-1 cells; assay: Cell viability by XTT assay and trypan blue exclusion; format: cell-based, Human; details: highest concentration of mPE
Procedure: To examine the effect of mPE on the inflammatory response, gingival epithelial cells (the OKF6/TERT cell line) and the monocytic cell line, THP-1, were treated with rhIL-1β (100 ng/ml) in the presence of increasing concentrations (0, 2, or 5 ng/ml) of mPE. Secreted levels of IL-8 were measured by ELISA. […] The experiment was carried out in quadruplicate; error bars represent±SD. The inhibition by mPE was significant at both concentrations with p<0.01. […] This was not a result of cytotoxicity, as cell viability (as measured by XTT assay and trypan blue exclusion) was no lower than 93-96% at the highest concentration of mPE. To determine whether this was due to an effect on IL-8 secretion or on gene regulation, mRNA was isolated from treated cells IL-8 mRNA levels were quantified by QPCR.

[5] = system: LPS-mediated TNF-α production, macrophage cell line; details: macrophage cells; cited from earlier work
[6] = system: IL-8 secretion, THP-1 cells; assay: IL-1β-induced IL-8 secretion (ELISA) in THP-1 cells; format: cell-based, Human
Procedure: (§1) The oral keratinocyte cell line OKF6/TERT (obtained from Dr. James Rhinewald, Harvard University) was cultured in Keratinocyte growth medium (Lonza) with hEGF, BPE (Bovine Pituitary Extract). Cells were subcultured in 6-well dishes 18 hours before stimulation. Cells were treated with 2 μg/mL, 5 μg/mL mPE with and without IL-1β stimulation (100 ng/mL, […]) for 2 hours, 4 hours and 18 hours. THP-1 cells were grown in suspension at RPMI 1640 with 10% FBS, and stimulated similarly.
(§2) Growth medium from stimulated cultures was collected either by aspiration (from keratinocytes) or after centrifugation at 1000 rpm for 15 minutes (for THP-1 cells). Cell debris was removed by centrifugation at 8,000 g (12,000 rpm) for 10 minutes at 4° C. To quantify IL-8 levels, the Human IL-8 Single Analyte ELISArray Kit (SA bioscience, MD) was used according to the manufacturer's protocol. The Cellular Activation of Signaling ELISA kit IKBα (SA bioscience, MD) was used to quantify both phosphorylated and whole IkBα levels in OKF6/TERT cells grown in a 96-well plate. All assays were performed in duplicate.
(§3) To examine the effect of mPE on the inflammatory response, gingival epithelial cells (the OKF6/TERT cell line) and the monocytic cell line, THP-1, were treated with rhIL-1β (100 ng/ml) in the presence of increasing concentrations (0, 2, or 5 ng/ml) of mPE. Secreted levels of IL-8 were measured by ELISA. […]

[7] = system: IL-8 secretion, OKF6/TERT cell line; assay: IL-1β-induced IL-8 secretion (ELISA) in gingival epithelial cells; format: cell-based, Human
Procedure: as §1, §2, §3

A. actinomycetemcomitans = details: planktonic form; cited from earlier work
IL-8 mRNA = IL-8 mRNA levels by QPCR in OKF6/TERT cells; format: cell-based, Human; details: IL-1β-treated cells, normalized to β2-Microglobulin, FIG. 4A
Procedure: Total cellular RNA was isolated from cultures using QIAshredder and RNeasy Mini Kit (Qiagen Valencia, Calif.). Total RNA was reversed transcribed using Superscript II reverse transcriptase kit as described by the manufacturer (Invitrogen, CA). Quantitative PCR (qPCR) was carried out using SYBR Green in a MyiQ iCycler (Bio-Rad). A total of 1 μl of cDNA (described above) was analyzed using final concentration of 100 nM of primers, 2×SYBR Green PCR Master Mix (Applied Biosystems, Foster City, Calif., USA) in volume of 20 μl. Prmer sequences were:
Amplification was carried out for 50 cycles (95° C., 15 seconds; 60° C., 60 seconds). The relative for mRNA expression in each sample was calculated based on its Ct value comparison to Ct of a housekeeping gene. […]
To examine the effect of mPE on the inflammatory response, gingival epithelial cells (the OKF6/TERT cell line) and the monocytic cell line, THP-1, were treated with rhIL-1β (100 ng/ml) in the presence of increasing concentrations (0, 2, or 5 ng/ml) of mPE. Secreted levels of IL-8 were measured by ELISA. […] This was not a result of cytotoxicity, as cell viability (as measured by XTT assay and trypan blue exclusion) was no lower than 93-96% at the highest concentration of mPE. To determine whether this was due to an effect on IL-8 secretion or on gene regulation, mRNA was isolated from treated cells IL-8 mRNA levels were quantified by QPCR. […]

P. gingivalis biofilms = assay: Activity against P. gingivalis biofilms (XTT metabolic assay, crystal violet); format: cell-based, Porphyromonas gingivalis
Procedure: Aggregatibacter actinomycetemcomitans 1005 (Aa) (obtained from Dr. Helen Schreiner, New Jersey Dental School) were cultured on TSB agar (4% trypticase soy broth, 0.6% yeast extract, 0.8% dextrose, 0.4% NaHCO3, 75 μg/mL bactracin, 5 μg/mL vancomycin) at 37° C., 10% CO2. Single colonies were inoculated to TSB broth in 75-cm^2 tissue culture flasks. Biofilm was harvest upon the 90% confluence and resuspended into 1 mL PBS. Resuspension was vortexed vigorously for 1 minute and allowed to settle for 10 minutes. The supernatant was then diluted to 2.5×10^7 before seeded to 96-well plates to obtain even biofilms. […]
To test the activity against P. gingivalis biofilms, strain 381 was grown in 96-well plates under conditions (i.e., grown in a 96-well plate for 21 days in an anaerobic chamber in Brain Heart Infusion (BHI) medium) that favor biofilm formation (Davey, Periodontol 2000, 2006, 42, 27-35). mPE was added in serial dilutions, incubated anaerobically for 24 hours, and the medium was replaced with XTT in RPMI. Metabolic activity was quantified as above. To confirm the ability of XTT to measure activity in the biofilm, the growth medium was removed, and biomass was quantified by crystal violet staining, followed by destaining and quantification of the optical density. Staining was quantified by reading A600. […]

[8] = rhIL-1β 100 ng/ml, mPE 0, 2, or 5 ng/ml as printed, FIG. 3

For `NCCc1cc(Br)cc(C#Cc2cccc(C#Cc3cc(Br)cc(CCN)c3)c2)c1` [mPE], the “activity against oral pathogens” value [1] is listed as “active”, the MIC (P. gingivalis) is listed as 2.5 µg/mL (≈ 4.79 µM) and the “IL-1β-stimulated phosphorylated IκB levels / total IκB” value [2] is listed as “reduction in activation of NF-κB; also recorded: rapid, dose-dependent reduction”. For the same compound, the “reduction of metabolic activity (XTT)” value ([3]; 2-hour exposure, 16 ng/ml, FIG. 1C) was 60%, the “antimicrobial activity against biofilms (XTT metabolic activity)” value ([3]; 24 hours, FIG. 1A) was “potent antimicrobial activity” and the “reduction in viable colonies (plating) and biomass (crystal violet)” value ([3]; FIG. 1B) was “reduction in viable colonies paralleled the results from the XTT assay”. The cell viability [4] was 93-96%, the “LPS-mediated TNF-α production” value [5] was “inhibited” and the “concentration sufficient to inhibit IL-1β-induced secretion of IL-8” value ([6]; THP-1 cells) was 2 µg/mL. For the same compound, the “inhibition of IL-8 secretion” value [6, 8] was “dose-dependent inhibition”, the “concentration sufficient to inhibit IL-1β-induced secretion of IL-8” value ([7]; gingival epithelial cells) was 2 µg/mL and the “inhibition of IL-8 secretion” value [7, 8] was “dose-dependent inhibition”. For the same compound, the MIC (A. actinomycetemcomitans) was 0.4 µg/mL (≈ 0.766 µM), the “IL-8 mRNA levels” value (IL-8 mRNA) was “inhibitory effect is at the level of gene expression” and the “activity against biofilm cultures” value (P. gingivalis biofilms) was “potent activity”. For the same compound, the “concentration at which biofilm and metabolic activity decrease to a baseline” value (P. gingivalis biofilms; 24 hours anaerobic, XTT and crystal violet, FIG. 2) was 4 to 8 µg/mL.
